Measurements reported in patent US20250282799A1, “SUBSTITUTED PYRIDO[4,3-d]PYRIMIDINES AS KRAS MODULATORS” (Alterome Therapeutics, Inc., priority 2023, published 2025).

The molecules below were run on KRAS G12V dependent lung adenocarcinoma cell line, NCI-H441 (assay: Cellular pERK (Thr202/Tyr204) FRET/HTRF assay). Conditions: Homo sapiens, NCI-H441, cellular pERK (Thr202/Tyr204) HTRF, NCI-H441 cells.
Type: cell-based
Summary of the method: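 NCI-H441 cells (KRAS G12V) plated overnight at 37 °C, then exposed to compounds for 1 hr at 37 °C, 5% CO2; DMSO as negative control. Lysates read by Eu-cryptate/d2 sandwich FRET (665 nm) for ERK1/2 phosphorylated at Thr202/Tyr204; IC50 from curve fit.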

SMILES	IC50 [nM]
Cc1c(F)c(N)cc(-c2ncc3c(N4CCCC[C@H]5[C@H](F)[C@H]54)nc(OC[C@]45C/C(=C\F)CN4CCC54CC4)nc3c2F)c1C(F)(F)F [Example 380, 2-fluoro-5-(8-fluoro-4-((1S,7R,8S)-8-fluoro-2-azabicyclo[5.1.0]octan-2-yl)-2-(((R,E)-6′-(fluoromethylene)tetrahydrospiro[cyclopropane-1,1′-pyrrolizin]-7a′(5′H)-yl)methoxy)pyrido[4,3-d]pyrimidin-7-yl)-3-methyl-4-(trifluoromethyl)aniline]	50 to 500
[2H]C([2H])(Oc1nc(N2CCOC[C@H]3[C@H](F)[C@H]32)c2cc(F)c(-c3cc(N)cc(C4CC4)c3C(F)(F)F)c(F)c2n1)[C@@]12CCCN1C[C@H](F)C2 [Example 163, 3-cyclopropyl-5-(6,8-difluoro-4-((1S,7S,8S)-8-fluoro-5-oxa-2-azabicyclo[5.1.0]octan-2-yl)-2-(((2R,7aS)-2-fluorotetrahydro-1H-pyrrolizin-7a(5H)-yl)methoxy-d2)quinazolin-7-yl)-4-(trifluoromethyl)aniline]	500 to 10000
[2H]C([2H])(F)Oc1c(F)ccc2cc(N)cc(-c3ncc4c(N5CCOC[C@H]6[C@H](F)[C@H]65)nc(OC[C@@]56CCCN5C[C@@H](C)C6)nc4c3F)c12 (single isomer, unassigned) [Example 214]	< 50
C#Cc1cccc2cc(N)cc(-c3ncc4c(N5CCOC[C@H]6[C@H](Cl)[C@H]65)nc(OC[C@@H]5CCCN5C)nc4c3F)c12 [Example 322, 4-(4-((1S,7S,8S)-8-chloro-5-oxa-2-azabicyclo[5.1.0]octan-2-yl)-8-fluoro-2-(((S)-1-methylpyrrolidin-2-yl)methoxy)pyrido[4,3-d]pyrimidin-7-yl)-5-ethynylnaphthalen-2-amine]	< 50
[2H]C([2H])(Oc1nc(N2CCOC[C@H]3[C@H](F)[C@H]32)c2cc(F)c(-c3cc(N)c(F)c(C)c3C(F)(F)F)c(F)c2n1)[C@@]12CCCN1C[C@H](F)C2 [Example 177, 5-(6,8-difluoro-4-((1S,7S,8S)-8-fluoro-5-oxa-2-azabicyclo[5.1.0]octan-2-yl)-2-(((2R,7aS)-2-fluorotetrahydro-1H-pyrrolizin-7a(5H)-yl)methoxy-d2)quinazolin-7-yl)-2-fluoro-3-methyl-4-(trifluoromethyl)aniline]	< 50
[2H]C([2H])(F)Oc1c(F)ccc2cc(N)cc(-c3ncc4c(N5CCOC[C@H]6[C@H](F)[C@H]65)nc(OC[C@@]56CCCN5C/C(=C\F)C6)nc4c3F)c12 [Example 188, 6-Fluoro-4-(8-fluoro-4-((1S,7S,8S)-8-fluoro-5-oxa-2-azabicyclo[5.1.0]octan-2-yl)-2-(((S,Z)-2-(fluoromethylene)tetrahydro-1H-pyrrolizin-7a(5H)-yl)methoxy)pyrido[4,3-d]pyrimidin-7-yl)-5-(fluoromethoxy-d2)naphthalen-2-amine]	< 50
C#Cc1c(F)ccc2cc(N)cc(-c3ncc4c(N5CCOC[C@H]6[C@H](F)[C@H]65)nc(OC[C@@]56CCCN5C[C@@]5(CC5(F)F)C6)nc4c3F)c12 (single isomer, unassigned) [Example 211]	< 50

The remaining lines, values ahead:

IC50 [nM]	SMILES
< 50	[2H]c1c(F)c(C#C)c2c(-c3ncc4c(N5CCOC[C@H]6[C@H](F)[C@H]65)nc(OC([2H])([2H])[C@@]56CCCN5C[C@H](F)C6)nc4c3F)cc(N)cc2c1[2H] [Example 273, 5-ethynyl-6-fluoro-4-(8-fluoro-4-((1S,7S,8S)-8-fluoro-5-oxa-2-azabicyclo[5.1.0]octan-2-yl)-2-(((2R,7aS)-2-fluorotetrahydro-1H-pyrrolizin-7a(5H)-yl)methoxy-d2)pyrido[4,3-d]pyrimidin-7-yl)naphthalen-7,8-d2-2-amine]
< 50	[2H]C([2H])(Oc1nc(N2CCCO[C@H]3[C@H](F)[C@H]32)c2cnc(-c3cc(N)cc4c(F)c(F)c(F)c(C#C)c34)c(F)c2n1)[C@@]12CCCN1C[C@H](F)C2 [Example 115, 5-ethynyl-6,7,8-trifluoro-4-(8-fluoro-4-((1R,7S,8R)-8-fluoro-2-oxa-6-azabicyclo[5.1.0]octan-6-yl)-2-(((2R,7aS)-2-fluorotetrahydro-1H-pyrrolizin-7a(5H)-yl)methoxy-d2)pyrido[4,3-d]pyrimidin-7-yl)naphthalen-2-amine]
< 50	[2H]C([2H])(Oc1nc(N2CCOC[C@H]3[C@H](F)[C@H]32)c2cnc(-c3cc(N)cc4ccc(F)c(C#C)c34)c(F)c2n1)[C@@]12CCCN1C[C@@H](C#N)C2 [Example 286, (2S,7aS)-7a-(((7-(3-amino-8-ethynyl-7-fluoronaphthalen-1-yl)-8-fluoro-4-((1S,7S,8S)-8-fluoro-5-oxa-2-azabicyclo[5.1.0]octan-2-yl)pyrido[4,3-d]pyrimidin-2-yl)oxy)methyl-d2)hexahydro-1H-pyrrolizine-2-carbonitrile]
< 50	[2H]C([2H])(Oc1nc(N2CCOC[C@H]3[C@H](F)[C@H]32)c2cnc(-c3cc(N)cc4cccc(C#C)c34)c(F)c2n1)[C@@]12CCCN1C[C@H](F)C2 [Example 268, 5-ethynyl-4-(8-fluoro-4-((1S,7S,8S)-8-fluoro-5-oxa-2-azabicyclo[5.1.0]octan-2-yl)-2-(((2R,7aS)-2-fluorotetrahydro-1H-pyrrolizin-7a(5H)-yl)methoxy-d2)pyrido[4,3-d]pyrimidin-7-yl)naphthalen-2-amine]
< 50	[2H]C([2H])(Oc1nc(N2CCC(=O)C[C@@H]3[C@@H](F)[C@@H]32)c2cnc(-c3cc(N)cc4cc(F)c(F)c(C#C)c34)c(F)c2n1)[C@@]12CCCN1C[C@H](F)C2 [Example 196, (1R,7S,8R)-2-(7-(3-amino-8-ethynyl-6,7-difluoronaphthalen-1-yl)-8-fluoro-2-(((2R,7aS)-2-fluorotetrahydro-1H-pyrrolizin-7a(5H)-yl)methoxy-d2)pyrido[4,3-d]pyrimidin-4-yl)-8-fluoro-2-azabicyclo[5.1.0]octan-5-one]
500 to 10000	[2H]C([2H])(Oc1nc(N2CCOC[C@H]3[C@H](F)[C@H]32)c2c(O)nc(-c3cc(N)cc4ccc(F)c(C#C)c34)c(F)c2n1)[C@@]12CCCN1C[C@H](F)C2 [Example 401, 7-(3-amino-8-ethynyl-7-fluoronaphthalen-1-yl)-8-fluoro-4-((1S,7S,8S)-8-fluoro-5-oxa-2-azabicyclo[5.1.0]octan-2-yl)-2-(((2R,7aS)-2-fluorotetrahydro-1H-pyrrolizin-7a(5H)-yl)methoxy-d2)pyrido[4,3-d]pyrimidin-5-ol]

Same assay, conditions: Homo sapiens, NCI-H441, cellular pERK HTRF, NCI-H441 (KRAS G12V) cells

IC50 [nM]	SMILES
< 50	[2H]C([2H])(Oc1nc(N2CCCC[C@H]3[C@H](F)[C@H]32)c2cnc(-c3cc(N)cc4ccc(F)c(C#C)c34)c(C)c2n1)[C@@]12CCCN1C[C@H](F)C2 [Example 460, 5-Ethynyl-6-fluoro-4-(4-((1S,7R,8S)-8-fluoro-2-azabicyclo[5.1.0]octan-2-yl)-2-(((2R,7aS)-2-fluorotetrahydro-1H-pyrrolizin-7a(5H)-yl)methoxy-d2)-8-methylpyrido[4,3-d]pyrimidin-7-yl)naphthalen-2-amine]
< 50	[2H]C([2H])(Oc1nc(N2CCOC[C@H]3[C@H](F)[C@H]32)c2cnc(-c3cc(O)cc4ccc(F)c(C#C)c34)c(C)c2n1)[C@]12CC(=C)CN1CCC21CC1 [Example 448, 5-Ethynyl-6-fluoro-4-(4-((1S,7S,8S)-8-fluoro-5-oxa-2-azabicyclo[5.1.0]octan-2-yl)-8-methyl-2-(((R)-6′-methylenetetrahydrospiro[cyclopropane-1,1′-pyrrolizin]-7a′(5′H)-yl)methoxy-d2)pyrido[4,3-d]pyrimidin-7-yl)naphthalen-2-ol]

Same assay, conditions: Homo sapiens, NCI-H441, pERK HTRF, NCI-H441 cells (KRAS G12V)

IC50 [nM]	SMILES
< 50	[2H]C([2H])(Oc1nc(N2CCOC[C@@H]3[C@H]2C3(F)F)c2cnc(-c3cc(N)cc4cc(F)c(F)c(C#C)c34)c(F)c2n1)[C@@]12CCCN1C[C@H](F)C2 [Example 19, 4-(4-((1S,7S)-8,8-Difluoro-5-oxa-2-azabicyclo[5.1.0]octan-2-yl)-8-fluoro-2-(((2R,7aS)-2-fluorotetrahydro-1H-pyrrolizin-7a(5H)-yl)methoxy-d2)pyrido[4,3-d]pyrimidin-7-yl)-5-ethynyl-6,7-difluoronaphthalen-2-amine]
500 to 10000	[2H]C([2H])(Oc1nc(N2CCC[C@@H]3C[C@@H]32)c2cnc(-c3cc(N)cc4cc(F)c(F)c(C#C)c34)c(F)c2n1)[C@@]12CCCN1C[C@H](F)C2 [Example 51, 4-(4-((1S,6R)-2-Azabicyclo[4.1.0]heptan-2-yl)-8-fluoro-2-(((2R,7aS)-2-fluorotetrahydro-1H-pyrrolizin-7a(5H)-yl)methoxy-d2)pyrido[4,3-d]pyrimidin-7-yl)-5-ethynyl-6,7-difluoronaphthalen-2-amine]
< 50	[2H]C([2H])(Oc1nc(N2CCOC[C@H]3[C@H](F)[C@H]32)c2cnc(-c3cccc4cc(F)c(F)c(C#C)c34)c(F)c2n1)[C@@]12CCCN1C[C@H](F)C2 [Example 42, (1S,7S,8S)-2-(7-(8-Ethynyl-6,7-difluoronaphthalen-1-yl)-8-fluoro-2-(((2R,7aS)-2-fluorotetrahydro-1H-pyrrolizin-7a(5H)-yl)methoxy-d2)pyrido[4,3-d]pyrimidin-4-yl)-8-fluoro-5-oxa-2-azabicyclo[5.1.0]octane]

Same assay, conditions: cellular pERK HTRF, NCI-H441 (KRAS G12V) cells

IC50 [nM]	SMILES
500 to 10000	[2H]C([2H])(Oc1nc(N2CCOC[C@H]3[C@H](F)[C@H]32)c2cc(F)c(-c3cc(O)cc4ccc(F)c(C#C)c34)c(F)c2n1)[C@@]12CCCN1C[C@H](F)C2 (atropisomer, axis not shown; (aS)) [Example 454, 4-((S)-6,8-difluoro-4-((1S,7S,8S)-8-fluoro-5-oxa-2-azabicyclo[5.1.0]octan-2-yl)-2-(((2R,7aS)-2-fluorotetrahydro-1H-pyrrolizin-7a(5H)-yl)methoxy-d2)quinazolin-7-yl)-5-ethynyl-6-fluoronaphthalen-2-ol]
